Reference: PubChem BioAssay AID2060890 (Molecular Pharmacology Branch, DTP, NCI, 2025)

Tested on: LG0703-F948-PDC complex spheroid viability
Experiment: Anticancer human tumor LG0703-F948-PDC patient-derived lung adenocarcinoma cell line growth inhibition [RAS]
Conditions: for IC50: curve of first compound; for viability, T/C: stronger effect = lower value
Outline: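 Tumour cells grown as complex spheroids with HUVEC endothelial cells and mesenchymal stem cells, treated with RAS pathway inhibitor combinations. Each agent spans half-log steps from near clinical Cmax, or 10 microM where Cmax is unknown.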
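Also: spheroids exposed to agents for 7 days.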
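For viability, T/C in this document: 100% = DMSO vehicle wells.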

CC(Nc1ccc2c(c1)OCCn1cc(N3C(=O)OCC3C(F)F)nc1-2)C(N)=O (centres undefined) + C#Cc1c(F)ccc2cc(O)cc(-c3ncc4c(N5CC6CCC(C5)N6)nc(OCC56CCCN5CC(F)C6)nc4c3F)c12
IC50 (second compound 0.0316 µM): 1.61 µM
IC50 (second compound 0.1 µM): 1.52 µM
IC50 (second compound 0.316 µM): 0.903 µM
IC50 (second compound 1 µM): 0.381 µM
IC50 (second compound 3.16 µM): 0.062 µM
IC50 (second compound 10 µM): < 0.0316 µM
viability, T/C (second compound 0.0316 µM, first compound 0.0316 µM): 96%
viability, T/C (second compound 0.0316 µM, first compound 0.1 µM): 88.5%
viability, T/C (second compound 0.0316 µM, first compound 0.316 µM): 76.3%
viability, T/C (second compound 0.0316 µM, first compound 1 µM): 56.4%
viability, T/C (second compound 0.0316 µM, first compound 3.16 µM): 39.9%
viability, T/C (second compound 0.0316 µM, first compound 10 µM): 21.6%
viability, T/C (second compound 0.1 µM, first compound 0.0316 µM): 80.7%
viability, T/C (second compound 0.1 µM, first compound 0.1 µM): 81%
viability, T/C (second compound 0.1 µM, first compound 0.316 µM): 66.5%
viability, T/C (second compound 0.1 µM, first compound 1 µM): 56.3%
viability, T/C (second compound 0.1 µM, first compound 3.16 µM): 39.7%
viability, T/C (second compound 0.1 µM, first compound 10 µM): 19.5%
viability, T/C (second compound 0.316 µM, first compound 0.0316 µM): 78.1%
viability, T/C (second compound 0.316 µM, first compound 0.1 µM): 71%
viability, T/C (second compound 0.316 µM, first compound 0.316 µM): 59.9%
viability, T/C (second compound 0.316 µM, first compound 1 µM): 50.8%
viability, T/C (second compound 0.316 µM, first compound 3.16 µM): 32%
viability, T/C (second compound 0.316 µM, first compound 10 µM): 12.5%
viability, T/C (second compound 1 µM, first compound 0.0316 µM): 77.7%
viability, T/C (second compound 1 µM, first compound 0.1 µM): 71.2%
viability, T/C (second compound 1 µM, first compound 0.316 µM): 52.7%
viability, T/C (second compound 1 µM, first compound 1 µM): 32.2%
viability, T/C (second compound 1 µM, first compound 3.16 µM): 17.6%
viability, T/C (second compound 1 µM, first compound 10 µM): 9.15%
viability, T/C (second compound 3.16 µM, first compound 0.0316 µM): 54.1%
viability, T/C (second compound 3.16 µM, first compound 0.1 µM): 47.5%
viability, T/C (second compound 3.16 µM, first compound 0.316 µM): 34%
viability, T/C (second compound 3.16 µM, first compound 1 µM): 18.7%
viability, T/C (second compound 3.16 µM, first compound 3.16 µM): 12.7%
viability, T/C (second compound 3.16 µM, first compound 10 µM): 4.54%
viability, T/C (second compound 10 µM, first compound 0.0316 µM): 48.1%
viability, T/C (second compound 10 µM, first compound 0.1 µM): 31%
viability, T/C (second compound 10 µM, first compound 0.316 µM): 15.2%
viability, T/C (second compound 10 µM, first compound 1 µM): 7.38%
viability, T/C (second compound 10 µM, first compound 3.16 µM): 4.96%
viability, T/C (second compound 10 µM, first compound 10 µM): 2.4%

CC(Nc1ccc2c(c1)OCCn1cc(N3C(=O)OCC3C(F)F)nc1-2)C(N)=O (centres undefined)
viability, T/C (compound 0.0316 µM): 96.2% [middle of 4 runs]
viability, T/C (compound 0.1 µM): 88.9% [middle of 4 runs]
viability, T/C (compound 1 µM): 56.3% [middle of 4 runs]
viability, T/C (compound 3.16 µM): 45% [middle of 4 runs]
viability, T/C (compound 10 µM): 27.8% [middle of 4 runs]

C[C@@H](NC(=O)c1ncnc(N)c1Cl)c1ncc(C(=O)Nc2cc(C(F)(F)F)c(Cl)cn2)s1 + CCn1c(-c2cccnc2C(C)OC)c2c3cc(ccc31)N1CCOC(CC(NC(=O)C(C(C)C)N(C)C(=O)C3(F)CCN(C(=O)C#CC(C)(C)N(C)C)CC3)C(=O)N3CCCC(N3)C(=O)OCC(C)(C)C2)C1
IC50 (second compound 0.000949 µM): > 10 µM
IC50 (second compound 0.003 µM): > 10 µM
IC50 (second compound 0.00949 µM): > 10 µM
IC50 (second compound 0.03 µM): > 10 µM
IC50 (second compound 0.0949 µM): > 10 µM
IC50 (second compound 0.3 µM): < 0.0316 µM
viability, T/C (second compound 0.000949 µM, first compound 0.0316 µM): 87.6%
viability, T/C (second compound 0.000949 µM, first compound 0.1 µM): 106%
viability, T/C (second compound 0.000949 µM, first compound 0.316 µM): 118%
viability, T/C (second compound 0.000949 µM, first compound 1 µM): 110%
viability, T/C (second compound 0.000949 µM, first compound 3.16 µM): 102%
viability, T/C (second compound 0.000949 µM, first compound 10 µM): 90.1%
viability, T/C (second compound 0.003 µM, first compound 0.0316 µM): 106%
viability, T/C (second compound 0.003 µM, first compound 0.1 µM): 102%
viability, T/C (second compound 0.003 µM, first compound 0.316 µM): 85.5%
viability, T/C (second compound 0.003 µM, first compound 1 µM): 113%
viability, T/C (second compound 0.003 µM, first compound 3.16 µM): 103%
viability, T/C (second compound 0.003 µM, first compound 10 µM): 105%
viability, T/C (second compound 0.00949 µM, first compound 0.0316 µM): 94.1%
viability, T/C (second compound 0.00949 µM, first compound 0.1 µM): 108%
viability, T/C (second compound 0.00949 µM, first compound 0.316 µM): 91%
viability, T/C (second compound 0.00949 µM, first compound 1 µM): 103%
viability, T/C (second compound 0.00949 µM, first compound 3.16 µM): 92.3%
viability, T/C (second compound 0.00949 µM, first compound 10 µM): 87.7%
viability, T/C (second compound 0.03 µM, first compound 0.0316 µM): 99.6%
viability, T/C (second compound 0.03 µM, first compound 0.1 µM): 105%
viability, T/C (second compound 0.03 µM, first compound 0.316 µM): 88.4%
viability, T/C (second compound 0.03 µM, first compound 1 µM): 97%
viability, T/C (second compound 0.03 µM, first compound 3.16 µM): 107%
viability, T/C (second compound 0.03 µM, first compound 10 µM): 82.2%
viability, T/C (second compound 0.0949 µM, first compound 0.0316 µM): 74.4%
viability, T/C (second compound 0.0949 µM, first compound 0.1 µM): 71.1%
viability, T/C (second compound 0.0949 µM, first compound 0.316 µM): 81.7%
viability, T/C (second compound 0.0949 µM, first compound 1 µM): 78.3%
viability, T/C (second compound 0.0949 µM, first compound 3.16 µM): 88.4%
viability, T/C (second compound 0.0949 µM, first compound 10 µM): 65.9%
viability, T/C (second compound 0.3 µM, first compound 0.0316 µM): 43.5%
viability, T/C (second compound 0.3 µM, first compound 0.1 µM): 42.9%
viability, T/C (second compound 0.3 µM, first compound 0.316 µM): 48.6%
viability, T/C (second compound 0.3 µM, first compound 1 µM): 54%
viability, T/C (second compound 0.3 µM, first compound 3.16 µM): 48.1%
viability, T/C (second compound 0.3 µM, first compound 10 µM): 37.5%
